Results: patent US20120148604A1, “TRP INHIBITORS AND USES THEREOF” (TRANSPOSAGEN BIOPHARMACEUTICALS, INC., priority 2009, published 2012)
“Also recorded” adds a separate entry of the source. Like-named read-outs stand apart in the source and are kept apart here. Blank lines part the entries; values can stand above or below the molecule they belong to.

Experiments:
TRPC4 [1] = settings: HEK cells, cited from earlier work
[2] = Paclitaxel induced cold allodynia, acetone cold response; format: in vivo, rat
Description: Cancer patients who are treated with chemotherapy drugs such as paclitaxel often display sensory abnormalities and symptoms of neuropathic pain such as sudden unexplainable pain attacks. In order to study the effects of cation channels on paclitaxel induced pain, Trpc4−/− rats were treated with the anti-cancer drug. Since one of the major symptoms of patients who are treated with paclitaxel is cold allodynia, control and Trpc4−/− rats were exposed to paclitaxel and tested for acetone cold response. Previously control non-paclitaxel treated and paclitaxel treated WT rats were studied for differences in cold allodynia. Based on established cold score calculations the non-treated rats scored an average of 8 while the paclitaxel treated WT rats scored an average of 15. […] When control and Trpc4−/− treated rats were compared the difference in pain sensitivity was dramatic. […] The reversion to nearly wild type cold allodynia score was remarkable in Trpc4 knockout rats.

[3] = STZ induced diabetes, von Frey filament mechanical pain threshold; format: in vivo, rat; settings: STZ treated diabetic control rats vs non-treated control rats
Description: Von Frey Filament Test (Chang model): The effect of compounds on mechanical allodynia can be determined by the von Frey filament test in rats with a tight ligation of the L-5 spinal nerve: a model of painful peripheral neuropathy. The surgical procedure is performed as described by Kim et al., Pain 50: 355-363 (1992). A calibrated series of von Frey filaments are used to assess mechanical allodynia (Chaplan et al., J. Neurosci. Methods 53: 55-63 (1994)). Filaments of increasing stiffness are applied perpendicular to the midplantar surface in the sciatic nerve distribution of the left hindpaw. The filaments are slowly depressed until bending occurred and are then held for 4-6 seconds. Flinching and licking of the paw and paw withdrawal on the ligated side are considered positive responses.
Since many patients with diabetes mellitus also suffer from hyperalgesia-derived neuropathic pain, the Trpc4(−/−) rats were studied for this indication. Groups of control and Trpc4 knockout rats were treated with streptozotocin (STZ) in order to induce diabetes. Rats were defined to be in a diabetic state if hyperglycemia and glucosuria occurred. The mechanical induced von Frey filament method was again used to establish altered pain response. When STZ non-treated control rats were compared to STZ diabetic control rats the pain response to mechanical induction was very drastic. […]

TRPC4 [4] = settings: dominant negative N-term fragment; cited from earlier work

Molecule: Clc1ccc(C(c2ccc(Cl)cc2)n2cc[n+](CC(OCc3ccc(Cl)cc3Cl)c3ccc(Cl)cc3Cl)c2)cc1 (stereo not drawn) [calmidazolium]
effect on TRPC4 current (TRPC4 [1]): not inhibited | effect on TRPC4 current (TRPC4 [1]; listed as CMZ): unable to inhibit TRPC4 current

cold score ([2]; paclitaxel treated Trpc4 knockout rats): 9 | cold score (average) ([2]; paclitaxel treated WT rats, non-treated rats scored 8): 15
Molecule: CC(=O)O[C@H]1C(=O)[C@@]2(C)[C@H]([C@H](OC(=O)c3ccccc3)[C@]3(O)C[C@H](OC(=O)[C@H](O)[C@@H](NC(=O)c4ccccc4)c4ccccc4)C(C)=C1C3(C)C)[C@]1(OC(C)=O)CO[C@@H]1C[C@@H]2O [paclitaxel]

Molecule: CN(N=O)C(=O)N[C@H]1C(O)O[C@H](CO)[C@@H](O)[C@@H]1O (mixture of isomers) [STZ, streptozotocin]
decrease of threshold for pain [3]: 40%

Molecule: Cl.NCCCCCCNS(=O)(=O)c1cccc2c(Cl)cccc12 [W-7, N-(6-Aminohexyl)-5-chloro-1-naphthalenesulfonamide hydrochloride]
effect on TRPC4 current (TRPC4 [1]; hydrochloride): significantly decreases TRPC4 current; also recorded: inhibited

Molecule: C=O [Formalin]
duration of nociceptive activity (rubbing face and flipping the head) (Formalin 1.5% 50 μl sc upper lip): 25 to 30 min | start of the activity (wild type rats, Formalin 1.5% 50 μl sc): 10 to 12 s

B1: first ankyrin domain: dominant negative N-term fragment of TRPC4, residues 61-121 (rat and mouse sequence in b219) (protein, UniProt Q9QUQ5 61-121, looked up, fragment)
chain: ININCIDPLGRTALLIAIENENLELIELLLSFNVYVGDALLHAIRKEVVGAVELLLNHKKP
suppression of TRPC4 currents (TRPC4 [4]): successfully suppress TRPC4 currents
